Source: PMC11844072, “Novel 5,6-dichlorobenzimidazole derivatives as dual BRAFWT and BRAFV600E inhibitors: design, synthesis, anti-cancer activity and molecular dynamics simulations” (BMC Chemistry, 2025)

Columns and labels:
HL-60(TB) = assay: NCI 5-dose assay; format: cell-based; details: Homo sapiens, Leukemia
Method in brief: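 Suspension cells such as leukaemia lines are fixed with 80% TCA added to settled cells, to 16% final, while other lines are fixed at 10% TCA. Both are then SRB-stained after 48 h of drug exposure at 37 °C.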

ACHN = assay: NCI 5-dose assay; format: cell-based; details: Homo sapiens, Renal cancer
Method in brief: (§1)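 5-dose: five concentrations from 10-fold or ½ log serial dilutions, added after 24 h of plating; 48 h drug exposure, 37 °C, 5% CO2. SRB read at 515 nm. GI50 = 50% reduction in net protein gain; TGI from Ti = Tz.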

UACC-62 = assay: NCI 5-dose assay; format: cell-based; details: Homo sapiens; UACC-62, Melanoma
Method in brief: as §1

RXF 393 = assay: NCI 5-dose assay; format: cell-based; details: Homo sapiens; RXF 393, Renal cancer
Method in brief: as §1

IGROV1 = assay: NCI 5-dose assay; format: cell-based; details: Homo sapiens, IGROV-1; IGROV1, Ovarian cancer
Method in brief: as §1

COLO 205 = assay: NCI 5-dose assay; format: cell-based; details: Homo sapiens; COLO 205, Colon cancer
Method in brief: as §1

LOX IMVI = assay: NCI 5-dose assay; format: cell-based; details: Homo sapiens, Melanoma
Method in brief: as §1

U251 = assay: NCI 5-dose assay; format: cell-based; details: Homo sapiens, U-251; U251, CNS cancer
Method in brief: as §1

K-562 = assay: NCI 5-dose assay; format: cell-based; details: Homo sapiens, K562; K-562, Leukemia
Method in brief: as §1

SF-539 = assay: NCI 5-dose assay; format: cell-based; details: Homo sapiens; SF-539, CNS cancer
Method in brief: as §1

FGFR-1 = FGFR-1 (Homo sapiens, UniProt P11362); assay: FGFR-1 kinase assay (Kinase-Glo Max luminescence)
Procedure: (§2) The inhibitory activity against different kinases was determined using kinase kits (BRAF WT
(§3) Glo Max luminescence kinase assay kit (Promega).
(§4) The assay was carried out according to the protocol provided by the manufacturer. A stock solution of the synthesized derivatives in 100% DMSO was prepared. Subsequently, the compounds were diluted to 10% DMSO.
(§5) A master mixture was prepared according to the number of wells. For BRAF assay each well include 6 μl of 5x Kinase Buffer 1 + 1 μl of ATP (500 μM) + 10 μl of 5X Raf substrate + 8 μl of distilled water. 1x Kinase buffer 1 was prepared by mixing 600 μl of 5x Kinase Buffer 1 with 2400 μl water to give 3 mL. Kinases were thawed on ice and were diluted with 1x Kinase Buffer 1. […]
(§6) The plate was incubated at 30 °C for 45 min. Subsequently, 50 μl of Kinase-Glo Max luminescence reagent was added to each well and the plate was covered with aluminum foil and incubated at room temperature for 15 min. Finally, the luminescence was recorded using multimode microplate reader. […]
(§7) The luminescence data were analyzed as follows. The difference between luminescence intensities in the absence of kinase (Lu t) and in the presence of kinase (Lu c) was defined as 100 %
(§8) calculated as: % activity = {(Lu t - Lu)/(Lut - Luc)} ×100%. The concentration of the test compounds required to reduce the kinase activity by 50% was determined from dose-response curves and

VEGFR-2 = VEGFR-2 (Homo sapiens, UniProt P35968); assay: VEGFR-2 kinase assay (Kinase-Glo Max luminescence)
Procedure: as §2, §3, §4, §5, §6, §7, §8

HT29 cell line = assay: Cell cycle analysis (PI flow cytometry); format: cell-based, human
Procedure: 7. Analysis of cell cycle distribution
HT29: Colon Cancer was obtained from Nawah Scientific Inc., (Mokatam, Cairo, Egypt). Cells were maintained in DMEM media supplemented with […] of streptomycin, 100 units/mL of penicillin and 10% of heat-inactivated fetal bovine serum in humidified, 5% (v/v) CO 2 atmosphere at 37 °C. After treatment with test compound 8m for 48h, cells (10^5 cells) are collected by trypsinization and washed twice with ice-cold PBS (pH 7.4). Cells are re-suspended in two milliliters of 60% ice-cold ethanol and incubated at 4 °C for 1h for fixation. Fixed cells are washed twice again with PBS (pH 7.4) and re-suspended in 1 mL of PBS containing 50 μg/mL RNAase A and 10 μg/mL propidium iodide (PI). After 20 min of incubation in dark at 37 °C, cells are analyzed for DNA contents using flow cytometry analysis using FL2 (λex/em 535/617 nm) signal detector (ACEA Novocyte™ flowcytometer, ACEA Biosciences Inc., San Diego, CA, USA). For each sample, 12,000 events are acquired. Cell cycle distribution is calculated using ACEA NovoExpress™ software (ACEA Biosciences Inc., San Diego, CA, USA). […]

[1] = HT29, 10h at its GI50 concentration, 48h

Chain of FGFR-1 (P11362 22-822): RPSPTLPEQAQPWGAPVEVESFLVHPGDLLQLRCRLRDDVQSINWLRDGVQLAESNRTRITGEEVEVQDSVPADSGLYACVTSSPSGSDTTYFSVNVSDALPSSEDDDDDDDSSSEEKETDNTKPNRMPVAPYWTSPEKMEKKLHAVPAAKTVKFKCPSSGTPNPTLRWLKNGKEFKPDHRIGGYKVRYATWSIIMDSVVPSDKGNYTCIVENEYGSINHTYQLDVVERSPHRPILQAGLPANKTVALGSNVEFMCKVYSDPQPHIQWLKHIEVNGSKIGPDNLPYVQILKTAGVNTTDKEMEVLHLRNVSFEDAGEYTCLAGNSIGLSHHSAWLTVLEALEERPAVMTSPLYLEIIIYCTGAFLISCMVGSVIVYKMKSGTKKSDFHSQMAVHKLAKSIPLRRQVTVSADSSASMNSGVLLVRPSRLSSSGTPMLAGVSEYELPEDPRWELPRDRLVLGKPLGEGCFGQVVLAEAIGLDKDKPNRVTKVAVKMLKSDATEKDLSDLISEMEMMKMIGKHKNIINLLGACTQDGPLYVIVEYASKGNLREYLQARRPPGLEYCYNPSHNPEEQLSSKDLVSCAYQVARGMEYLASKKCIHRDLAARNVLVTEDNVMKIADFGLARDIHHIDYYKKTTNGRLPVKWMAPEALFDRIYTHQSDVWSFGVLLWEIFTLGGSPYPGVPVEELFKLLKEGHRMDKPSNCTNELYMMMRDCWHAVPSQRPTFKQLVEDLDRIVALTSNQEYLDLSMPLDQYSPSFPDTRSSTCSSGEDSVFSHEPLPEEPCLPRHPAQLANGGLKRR
Chain of VEGFR-2 (P35968 20-1356): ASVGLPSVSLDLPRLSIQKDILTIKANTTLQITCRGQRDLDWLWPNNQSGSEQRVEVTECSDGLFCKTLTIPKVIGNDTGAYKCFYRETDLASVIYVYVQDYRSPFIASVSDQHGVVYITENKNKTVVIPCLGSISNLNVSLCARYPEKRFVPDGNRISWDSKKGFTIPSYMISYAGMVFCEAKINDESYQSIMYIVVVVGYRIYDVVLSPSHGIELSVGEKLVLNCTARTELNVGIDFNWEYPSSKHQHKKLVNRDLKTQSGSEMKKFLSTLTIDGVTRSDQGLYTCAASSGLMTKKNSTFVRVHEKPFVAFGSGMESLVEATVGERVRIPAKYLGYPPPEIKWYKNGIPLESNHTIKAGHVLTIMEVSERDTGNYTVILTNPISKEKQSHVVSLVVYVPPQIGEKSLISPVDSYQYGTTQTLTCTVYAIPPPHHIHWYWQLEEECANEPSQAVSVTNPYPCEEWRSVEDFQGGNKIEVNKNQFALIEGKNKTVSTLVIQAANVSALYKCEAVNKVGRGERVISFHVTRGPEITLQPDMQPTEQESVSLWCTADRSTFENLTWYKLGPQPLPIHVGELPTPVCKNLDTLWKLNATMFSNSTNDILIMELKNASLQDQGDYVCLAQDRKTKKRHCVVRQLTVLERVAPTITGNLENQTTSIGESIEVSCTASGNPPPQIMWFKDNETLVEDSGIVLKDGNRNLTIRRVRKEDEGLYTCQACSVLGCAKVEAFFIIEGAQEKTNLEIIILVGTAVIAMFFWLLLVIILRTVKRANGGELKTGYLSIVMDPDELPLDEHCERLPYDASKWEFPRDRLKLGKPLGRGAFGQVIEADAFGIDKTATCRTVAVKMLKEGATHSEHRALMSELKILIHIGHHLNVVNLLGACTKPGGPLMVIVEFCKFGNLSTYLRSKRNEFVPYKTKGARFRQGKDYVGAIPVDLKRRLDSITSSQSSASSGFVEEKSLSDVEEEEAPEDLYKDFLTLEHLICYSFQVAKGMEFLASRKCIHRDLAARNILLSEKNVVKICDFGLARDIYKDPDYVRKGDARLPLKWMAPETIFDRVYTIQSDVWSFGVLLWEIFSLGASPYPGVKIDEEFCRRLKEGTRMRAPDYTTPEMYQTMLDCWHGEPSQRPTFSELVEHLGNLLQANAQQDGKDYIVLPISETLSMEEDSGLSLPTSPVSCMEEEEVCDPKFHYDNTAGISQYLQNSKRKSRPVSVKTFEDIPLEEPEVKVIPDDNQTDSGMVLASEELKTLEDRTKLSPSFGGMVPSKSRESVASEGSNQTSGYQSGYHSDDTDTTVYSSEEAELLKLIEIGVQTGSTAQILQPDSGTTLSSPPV

Structure (SMILES) | GI50 (HL-60(TB)) | GI50 (ACHN) | GI50 (UACC-62) | GI50 (RXF 393) | GI50 (IGROV1) | GI50 (COLO 205) | GI50 (LOX IMVI) | GI50 (U251) | GI50 (K-562) | GI50 (SF-539) | IC50 (FGFR-1) | IC50 (VEGFR-2) | %G0/G1 (HT29 cell line; [1]) | %G2/M (HT29 cell line; [1]) | %S (HT29 cell line; [1]) | %Sub-G1 (HT29 cell line; [1]) | effect on cell cycle progression (HT29 cell line; HT29 colon cancer cell line)
COC(=O)COc1ccc(C=NNC(=O)Cn2c(-c3ccc(OC)cc3)nc3cc(Cl)c(Cl)cc32)cc1OC [Compound 10p, Methyl-2-(4-((2-(2-(5,6-dichloro-2-(4-methoxyphenyl)-1H-benzo[d]imidazol-1-yl)acetyl)hydrazono)methyl)-2-methoxyphenoxy)acetate] | > 72.5 µM | 5.42 µM | 6.52 µM | 1.43 µM | 3.6 µM | 18.2 µM | 31.2 µM | > 72.5 µM | > 72.5 µM | 7.52 µM | – | – | – | – | – | – | –
COC(=O)COc1ccc(C=NNC(=O)Cn2c(-c3ccc(OC)cc3)nc3cc(Cl)c(Cl)cc32)cc1 [Compound 10h, Methyl-2-(4-((2-(2-(5,6-dichloro-2-(4-methoxyphenyl)-1H-benzo[d]imidazol-1-yl)acetyl)hydrazono)methyl)phenoxy)acetate] | > 82.5 µM | 7.84 µM | 10.1 µM | 2.85 µM | 4.06 µM | 16.5 µM | 6.83 µM | 14.1 µM | 11.3 µM | 10.7 µM | > 10 µM | 1.52 ± 0.14 µM | 62.69% | 19.26% | 18.04% | 10.45% | arrested cell cycle progression in HT29 colon cancer cell line at G2/M phase
COC(=O)COc1cc(C=NNC(=O)Cn2c(-c3ccc(OC)cc3)nc3cc(Cl)c(Cl)cc32)ccc1OC [Compound 10o, Methyl-2-(5-((2-(2-(5,6-dichloro-2-(4-methoxyphenyl)-1H-benzo[d]imidazol-1-yl)acetyl)hydrazono)methyl)-2-methoxyphenoxy)acetate] | > 100 µM | 14.2 µM | 14.5 µM | 11 µM | 14.7 µM | > 100 µM | > 100 µM | > 100 µM | > 100 µM | 5.28 µM | – | – | – | – | – | – | –
